Measured values: ChEMBL document CHEMBL4385643, “Design of a brain-penetrant CDK4/6 inhibitor for glioblastoma” (Bioorg Med Chem Lett, 2019)

Legend:
[1] = target: Serine/threonine-protein kinase N1 (Homo sapiens) (UniProt Q16512); assay: Inhibition of recombinant full length human GST-tagged PRK1 expressed in baculovirus expression system at 0.1 uM using serine/threonine-7 peptide as substrate incubated for 60 mins by Z'-LYTE assay relative to control
[2] = target: Phosphatidylinositol 4,5-bisphosphate 3-kinase catalytic subunit gamma isoform (Homo sapiens) (UniProt P48736); assay: Inhibition of recombinant human GST-tagged PI3Kgamma catalytic domain (468 to 1203 residues) expressed in insect expression system at 0.1 uM using PI Lipid Kinase as substrate incubated for 60 mins by Adapta assay relative to control
[3] = target: Calcium/calmodulin-dependent protein kinase type 1 (Homo sapiens) (UniProt Q14012); assay: Inhibition of recombinant full length human His-tagged CAMK1 expressed in baculovirus expression system at 0.1 uM using ZIPtide peptide as substrate incubated for 60 mins by Adapta assay relative to control
[4] = target: Mitogen-activated protein kinase 14 (Homo sapiens) (UniProt Q16539); assay: Inhibition of recombinant full length human GST-tagged p38alpha expressed in Escherichia coli expression system at 0.1 uM using serine/threonine-15 peptide as substrate incubated for 60 mins by Z'-LYTE assay relative to control
[5] = target: Leucine-rich repeat serine/threonine-protein kinase 2 (Homo sapiens) (UniProt Q5S007); assay: Inhibition of recombinant human GST-tagged LRRK2 catalytic domain (970 to 2527 amino acids) expressed in baculovirus expression system at 0.1 uM using ERM (LRRKtide) peptide as substrate incubated for 60 mins by Adapta assay relative to control
[6] = target: Epithelial discoidin domain-containing receptor 1 (Homo sapiens) (UniProt Q08345); assay: Inhibition of tracer 178 binding to recombinant human GST-tagged DDR1 catalytic domain (440 to 876 residues) expressed in baculovirus expression system at 0.1 uM measured after 60 mins by Lanthascreen assay relative to control
[7] = target: Mast/stem cell growth factor receptor Kit (Homo sapiens) (UniProt P10721); assay: Inhibition of recombinant human His-tagged KIT (544 to 976 residues) expressed in baculovirus expression system at 0.1 uM using tyrosine-6 peptide as substrate incubated for 60 mins by Z'-LYTE assay relative to control
[8] = target: Mitogen-activated protein kinase kinase kinase 9 (Homo sapiens) (UniProt P80192); assay: Inhibition of recombinant human GST-tagged MLK1 catalytic domain (1 to 500 residues) expressed in baculovirus expression system at 0.1 uM using serine/threonine-7 peptide as substrate incubated for 60 mins by Z'-LYTE assay relative to control
[9] = target: Ribosomal protein S6 kinase alpha-2 (Homo sapiens) (UniProt Q15349); assay: Inhibition of recombinant full length human GST-tagged RSK3 expressed in insect expression system at 0.1 uM using serine/threonine-6 peptide as substrate incubated for 60 mins by Z'-LYTE assay relative to control
[10] = target: Serine/threonine-protein kinase Nek6 (Homo sapiens) (UniProt Q9HC98); assay: Inhibition of recombinant full length human GST-tagged NEK6 expressed in insect expression system at 0.1 uM using serine/threonine-22 peptide as substrate incubated for 60 mins by Z'-LYTE assay relative to control
[11] = target: MAP kinase-activated protein kinase 3 (Homo sapiens) (UniProt Q16644); assay: Inhibition of recombinant full length human His-tagged MAPKAPK3 expressed in baculovirus expression system at 0.1 uM using serine/threonine-4 peptide as substrate incubated for 60 mins by Z'-LYTE assay relative to control
[12] = target: Epidermal growth factor receptor (Homo sapiens) (UniProt P00533); assay: Inhibition of recombinant human GST-tagged EGFR (668 to 1210 residues) expressed in baculovirus expression system at 0.1 uM using tyrosine-4 peptide as substrate incubated for 60 mins by Z'-LYTE assay relative to control
[13] = target: CDK8/Cyclin C (Homo sapiens) (UniProt P49336+P24863); assay: Inhibition of tracer 236 binding to recombinant full length human His-tagged CDK8/cyclin C expressed in baculovirus expression system at 0.1 uM measured after 60 mins by Lanthascreen assay
[14] = target: Rho-associated protein kinase 1 (Homo sapiens) (UniProt Q13464); assay: Inhibition of recombinant human GST-tagged ROCK1 catalytic domain (1 to 535 amino acids) expressed in baculovirus expression system at 0.1 uM using serine/threonine-7 peptide as substrate incubated for 60 mins by Z'-LYTE assay relative to control
[15] = target: Misshapen-like kinase 1 (Homo sapiens) (UniProt Q8N4C8); assay: Inhibition of recombinant human GST-tagged MINK1 catalytic domain (1 to 320 residues) expressed in baculovirus expression system at 0.1 uM using serine/threonine-7 peptide as substrate incubated for 60 mins by Z'-LYTE assay relative to control
[16] = target: Casein kinase I isoform gamma-2 (Homo sapiens) (UniProt P78368); assay: Inhibition of recombinant full length human His-tagged CK1 gamma 2 expressed in baculovirus expression system at 0.1 uM using serine/threonine-5 peptide as substrate incubated for 60 mins by Z'-LYTE assay relative to control
[17] = target: Focal adhesion kinase 1 (Homo sapiens) (UniProt Q05397); assay: Inhibition of recombinant full length human GST-tagged FAK expressed in baculovirus expression system at 0.1 uM using tyrosine-7 peptide as substrate incubated for 60 mins by Z'-LYTE assay relative to control
[18] = target: Tyrosine-protein kinase JAK2 (Homo sapiens) (UniProt O60674); assay: Inhibition of recombinant human GST-tagged JAK2 catalytic domain (809 to 1153+9 residues) expressed in baculovirus expression system at 0.1 uM using tyrosine-6 peptide as substrate incubated for 60 mins by Z'-LYTE assay relative to control
[19] = target: Serine/threonine-protein kinase NLK (Homo sapiens) (UniProt Q9UBE8); assay: Inhibition of tracer 178 binding to recombinant full length human GST-tagged NLK expressed by baculovirus expression system at 0.1 uM measured after 60 mins by Lanthascreen assay relative to control
[20] = target: Serine/threonine-protein kinase 17A (Homo sapiens) (UniProt Q9UEE5); assay: Inhibition of tracer 236 binding to recombinant full length human GST-tagged DRAK1 expressed in baculovirus expression system at 0.1 uM measured after 60 mins by Lanthascreen assay relative to control
[21] = target: RAC-beta serine/threonine-protein kinase (Homo sapiens) (UniProt P31751); assay: Inhibition of recombinant full length human His-tagged AKT2 expressed in baculovirus expression system at 0.1 uM using serine/threonine-06 peptide as substrate incubated for 60 mins by Z'-LYTE assay relative to control
[22] = target: Serine/threonine-protein kinase PLK1 (Homo sapiens) (UniProt P53350); assay: Inhibition of recombinant full length human His-tagged PLK1 expressed in baculovirus expression system at 0.1 uM using serine/threonine-16 peptide as substrate incubated for 60 mins by Z'-LYTE assay relative to control
[23] = target: Cyclin-dependent kinase 14/Cyclin-Y (Homo sapiens) (UniProt O94921+Q8ND76); assay: Inhibition of tracer 236 binding to recombinant human GST-tagged CDK14/cyclin Y catalytic domain (CDK14: full length, Cyclin Y: 2 to end) expressed by baculovirus in Sf9 insect cells expression system at 0.1 uM measured after 60 mins by Lanthascreen assay relative to control

Casein kinase I isoform gamma-2 (Homo sapiens), sequence (P78368 whole entry, looked up, canonical isoform): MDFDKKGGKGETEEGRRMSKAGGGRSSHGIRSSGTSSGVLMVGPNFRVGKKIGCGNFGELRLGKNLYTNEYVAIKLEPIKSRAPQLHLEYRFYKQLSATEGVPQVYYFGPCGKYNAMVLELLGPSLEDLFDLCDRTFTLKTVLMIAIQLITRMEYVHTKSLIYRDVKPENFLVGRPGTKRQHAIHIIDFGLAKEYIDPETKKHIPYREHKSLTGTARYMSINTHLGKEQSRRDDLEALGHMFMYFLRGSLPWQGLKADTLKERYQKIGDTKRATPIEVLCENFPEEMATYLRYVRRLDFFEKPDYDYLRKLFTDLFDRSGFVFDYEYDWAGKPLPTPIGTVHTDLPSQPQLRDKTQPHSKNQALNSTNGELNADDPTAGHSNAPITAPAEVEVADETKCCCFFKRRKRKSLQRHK
Tyrosine-protein kinase JAK2 (Homo sapiens), sequence (O60674 whole entry, the tested form may be a part): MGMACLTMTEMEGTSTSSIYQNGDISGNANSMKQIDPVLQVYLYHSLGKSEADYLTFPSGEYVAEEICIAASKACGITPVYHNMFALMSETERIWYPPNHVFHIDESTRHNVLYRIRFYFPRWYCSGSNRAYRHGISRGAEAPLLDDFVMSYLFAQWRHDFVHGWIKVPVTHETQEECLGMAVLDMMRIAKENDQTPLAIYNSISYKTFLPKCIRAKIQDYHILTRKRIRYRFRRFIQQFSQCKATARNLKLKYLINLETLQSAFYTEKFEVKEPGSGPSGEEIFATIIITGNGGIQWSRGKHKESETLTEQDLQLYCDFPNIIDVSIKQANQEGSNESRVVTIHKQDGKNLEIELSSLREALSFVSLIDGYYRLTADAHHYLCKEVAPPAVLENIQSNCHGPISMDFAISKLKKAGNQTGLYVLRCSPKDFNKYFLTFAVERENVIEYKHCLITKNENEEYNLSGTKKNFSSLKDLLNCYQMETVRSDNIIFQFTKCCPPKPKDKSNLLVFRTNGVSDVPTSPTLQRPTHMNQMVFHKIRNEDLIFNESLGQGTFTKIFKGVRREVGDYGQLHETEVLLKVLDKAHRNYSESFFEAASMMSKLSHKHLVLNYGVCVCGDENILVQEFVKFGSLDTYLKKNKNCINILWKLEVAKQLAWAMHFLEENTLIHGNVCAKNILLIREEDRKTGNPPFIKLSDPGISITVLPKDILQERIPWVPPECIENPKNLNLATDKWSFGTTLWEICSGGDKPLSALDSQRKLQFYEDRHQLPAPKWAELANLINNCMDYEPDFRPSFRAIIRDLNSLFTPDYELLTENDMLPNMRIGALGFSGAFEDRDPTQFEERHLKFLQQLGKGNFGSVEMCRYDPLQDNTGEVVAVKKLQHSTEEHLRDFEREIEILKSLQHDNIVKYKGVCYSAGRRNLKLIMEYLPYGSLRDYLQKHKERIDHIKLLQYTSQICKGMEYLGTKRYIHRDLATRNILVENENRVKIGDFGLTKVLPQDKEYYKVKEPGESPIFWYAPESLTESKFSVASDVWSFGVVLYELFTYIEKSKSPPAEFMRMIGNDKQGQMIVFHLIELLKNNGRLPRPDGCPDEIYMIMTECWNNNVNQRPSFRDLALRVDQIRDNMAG
Mitogen-activated protein kinase kinase kinase 9 (Homo sapiens), sequence (P80192 whole entry, looked up, the tested form may be a part): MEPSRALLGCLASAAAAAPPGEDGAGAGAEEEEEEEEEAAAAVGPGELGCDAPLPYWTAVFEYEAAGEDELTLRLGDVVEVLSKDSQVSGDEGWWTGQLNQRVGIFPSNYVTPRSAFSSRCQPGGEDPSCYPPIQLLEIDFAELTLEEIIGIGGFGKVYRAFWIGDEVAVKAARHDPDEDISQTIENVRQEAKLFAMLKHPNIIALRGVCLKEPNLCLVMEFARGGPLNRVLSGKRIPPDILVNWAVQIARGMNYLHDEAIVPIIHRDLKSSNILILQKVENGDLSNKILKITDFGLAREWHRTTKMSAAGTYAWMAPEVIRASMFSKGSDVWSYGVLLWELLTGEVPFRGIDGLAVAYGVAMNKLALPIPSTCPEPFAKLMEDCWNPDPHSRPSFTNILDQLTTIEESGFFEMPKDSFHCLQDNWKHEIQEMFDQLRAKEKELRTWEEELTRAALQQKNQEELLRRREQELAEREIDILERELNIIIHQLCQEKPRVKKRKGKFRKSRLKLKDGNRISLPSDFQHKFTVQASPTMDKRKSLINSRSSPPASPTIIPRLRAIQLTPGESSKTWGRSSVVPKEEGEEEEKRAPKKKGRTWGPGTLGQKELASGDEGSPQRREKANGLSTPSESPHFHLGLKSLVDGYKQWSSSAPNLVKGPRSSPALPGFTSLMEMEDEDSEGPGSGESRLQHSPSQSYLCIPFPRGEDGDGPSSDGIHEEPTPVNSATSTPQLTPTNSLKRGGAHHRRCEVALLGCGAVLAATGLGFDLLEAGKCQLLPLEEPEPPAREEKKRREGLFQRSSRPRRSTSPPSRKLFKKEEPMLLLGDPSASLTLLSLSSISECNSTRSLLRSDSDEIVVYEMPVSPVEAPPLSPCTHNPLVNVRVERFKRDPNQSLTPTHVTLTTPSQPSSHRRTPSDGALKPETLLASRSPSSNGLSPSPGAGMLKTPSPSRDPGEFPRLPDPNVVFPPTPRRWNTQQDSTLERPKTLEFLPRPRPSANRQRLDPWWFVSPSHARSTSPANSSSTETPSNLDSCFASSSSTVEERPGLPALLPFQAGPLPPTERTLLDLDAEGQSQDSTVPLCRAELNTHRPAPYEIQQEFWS
Mitogen-activated protein kinase 14 (Homo sapiens), sequence (Q16539 whole entry, the tested form may be a part): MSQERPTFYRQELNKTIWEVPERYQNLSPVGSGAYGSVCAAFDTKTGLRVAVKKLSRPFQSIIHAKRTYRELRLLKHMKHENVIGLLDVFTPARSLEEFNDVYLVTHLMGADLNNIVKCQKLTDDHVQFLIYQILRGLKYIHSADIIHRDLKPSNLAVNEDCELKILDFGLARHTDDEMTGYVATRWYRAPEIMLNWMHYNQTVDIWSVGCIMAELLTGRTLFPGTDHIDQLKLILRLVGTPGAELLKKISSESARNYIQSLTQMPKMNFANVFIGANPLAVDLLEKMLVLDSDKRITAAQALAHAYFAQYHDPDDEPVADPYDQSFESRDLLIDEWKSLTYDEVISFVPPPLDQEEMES
Serine/threonine-protein kinase PLK1 (Homo sapiens), sequence (P53350 whole entry, the tested form may be a part): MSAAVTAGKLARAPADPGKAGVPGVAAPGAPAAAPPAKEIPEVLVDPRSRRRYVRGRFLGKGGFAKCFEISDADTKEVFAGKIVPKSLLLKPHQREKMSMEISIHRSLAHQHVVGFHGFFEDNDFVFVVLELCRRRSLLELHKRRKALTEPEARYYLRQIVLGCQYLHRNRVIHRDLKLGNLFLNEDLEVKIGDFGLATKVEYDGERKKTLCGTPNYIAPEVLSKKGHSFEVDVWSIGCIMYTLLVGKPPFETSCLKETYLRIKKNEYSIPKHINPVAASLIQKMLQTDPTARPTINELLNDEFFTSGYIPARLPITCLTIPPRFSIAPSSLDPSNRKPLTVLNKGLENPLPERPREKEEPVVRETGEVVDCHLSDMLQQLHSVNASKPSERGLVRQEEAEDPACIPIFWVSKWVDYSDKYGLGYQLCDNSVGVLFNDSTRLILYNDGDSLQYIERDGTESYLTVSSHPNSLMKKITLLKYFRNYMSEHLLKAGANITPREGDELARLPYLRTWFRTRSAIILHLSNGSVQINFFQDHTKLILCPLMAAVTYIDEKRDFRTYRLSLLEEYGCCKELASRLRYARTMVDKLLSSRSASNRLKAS
Phosphatidylinositol 4,5-bisphosphate 3-kinase catalytic subunit gamma isoform (Homo sapiens), sequence (P48736 whole entry, looked up, the tested form may be a part, canonical isoform): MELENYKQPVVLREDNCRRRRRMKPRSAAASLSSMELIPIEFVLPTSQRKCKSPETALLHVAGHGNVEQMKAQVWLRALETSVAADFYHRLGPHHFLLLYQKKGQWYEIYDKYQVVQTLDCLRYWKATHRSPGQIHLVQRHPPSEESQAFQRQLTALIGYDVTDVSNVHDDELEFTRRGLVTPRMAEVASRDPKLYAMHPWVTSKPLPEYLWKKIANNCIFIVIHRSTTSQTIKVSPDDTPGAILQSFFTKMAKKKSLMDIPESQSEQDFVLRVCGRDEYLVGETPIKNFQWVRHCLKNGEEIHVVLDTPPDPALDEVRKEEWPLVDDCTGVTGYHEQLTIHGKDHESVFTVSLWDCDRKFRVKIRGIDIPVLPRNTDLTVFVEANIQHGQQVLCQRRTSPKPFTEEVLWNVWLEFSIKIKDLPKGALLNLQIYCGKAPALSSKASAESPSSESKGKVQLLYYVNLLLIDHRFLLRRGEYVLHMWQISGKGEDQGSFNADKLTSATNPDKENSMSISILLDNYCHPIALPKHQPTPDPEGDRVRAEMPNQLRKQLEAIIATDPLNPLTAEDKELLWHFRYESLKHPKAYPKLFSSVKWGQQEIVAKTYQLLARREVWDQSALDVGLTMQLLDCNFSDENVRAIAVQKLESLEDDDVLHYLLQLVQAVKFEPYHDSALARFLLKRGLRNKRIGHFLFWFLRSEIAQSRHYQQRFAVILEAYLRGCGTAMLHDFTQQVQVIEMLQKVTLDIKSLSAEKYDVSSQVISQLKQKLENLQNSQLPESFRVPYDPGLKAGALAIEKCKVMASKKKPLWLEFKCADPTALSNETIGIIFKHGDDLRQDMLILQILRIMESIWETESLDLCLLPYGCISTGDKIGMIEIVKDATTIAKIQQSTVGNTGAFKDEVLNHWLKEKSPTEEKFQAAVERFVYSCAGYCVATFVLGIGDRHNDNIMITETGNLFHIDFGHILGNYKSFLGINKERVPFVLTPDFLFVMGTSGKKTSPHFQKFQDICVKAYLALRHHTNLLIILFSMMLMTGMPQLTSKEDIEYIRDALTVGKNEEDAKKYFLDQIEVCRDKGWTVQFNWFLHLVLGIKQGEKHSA
Serine/threonine-protein kinase Nek6 (Homo sapiens), sequence (Q9HC98 whole entry): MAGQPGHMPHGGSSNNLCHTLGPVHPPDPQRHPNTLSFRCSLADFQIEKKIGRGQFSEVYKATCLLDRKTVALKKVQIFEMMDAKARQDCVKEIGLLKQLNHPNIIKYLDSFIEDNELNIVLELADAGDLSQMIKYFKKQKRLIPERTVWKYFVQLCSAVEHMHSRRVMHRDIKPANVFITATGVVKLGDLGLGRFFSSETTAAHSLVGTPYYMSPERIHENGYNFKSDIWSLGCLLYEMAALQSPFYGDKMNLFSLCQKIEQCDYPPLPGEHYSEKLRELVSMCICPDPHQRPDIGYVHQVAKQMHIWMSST

| Structure (SMILES) | inhibition [1] [%] | inhibition [2] [%] | inhibition [3] [%] | inhibition [4] [%] | inhibition [5] [%] | inhibition [6] [%] | inhibition [7] [%] | inhibition [8] [%] | inhibition [9] [%] | inhibition [10] [%] | inhibition [11] [%] | inhibition [12] [%] | inhibition [13] [%] | inhibition [14] [%] | inhibition [15] [%] | inhibition [16] [%] | inhibition [17] [%] | inhibition [18] [%] | inhibition [19] [%] | inhibition [20] [%] | also measured |
| --- | --- | --- | --- | --- | --- | --- | --- | --- | --- | --- | --- | --- | --- | --- | --- | --- | --- | --- | --- | --- | --- |
| CCN1CC2(C1)CN(c1ccc(Nc3ncc(F)c(-c4cnn5c4[C@H](C)CCCC5)n3)nc1)C2 | 8.5 | 2 | 10.5 | 3 | 97.5 | 0 | -0.5 | 47 | 58.5 | 3.5 | 1 | 0 | 75 | 2 | 27.5 | 3.5 | 19.5 | 18.5 | 22.5 | 72 | inhibition [21]: 9.5%; inhibition [22]: 2%; inhibition [23]: 41.5% |
| CCN1CCN(Cc2ccc(Nc3ncc(F)c(-c4cc(F)c5nc(C)n(C(C)C)c5c4)n3)nc2)CC1 [ABEMACICLIB] | 7 | -6.3 | 26.7 | -1 | 74.6 | 8.7 | 0 | 11.5 | 19.5 | 3.5 | 9 | 4 | 24.2 | 18.5 | 79.5 | 7 | 15.5 | 6 | 2.2 | 56.2 | inhibition [21]: 3%; inhibition [22]: 8.5%; inhibition [23]: 56% |
